Reference: US9872861B2, “Methods of treatment using selective Bcl-2 inhibitors” (AbbVie Inc., priority 2010, dated 2018)
Like-named read-outs stand apart in the source and are kept apart here. Marks after values point to notes of the source that are not given here.

Key:
[1] = tested on: peripheral blood immune cells; assay: Peripheral blood lymphocytes in C57BL/6 mice, Cell Dyn hematology analyzer; assay type: in vivo; settings: for inhibition in vivo at 100 mg/kg: Mus musculus, Lymphocyte
Procedure: The effect of the Bcl-2 selective/Bcl-XL sparing compounds on peripheral blood immune cells was also evaluated in C57BL/6 mice. Mice were treated four days with individual compounds (100 mg/kg, orally every day) and cell numbers were measured with a Cell Dyn hematology analyzer.

[2] = Exposure in spontaneous lupus model; assay type: in vivo; settings: 30 mg/kg dosing
Description: When mice became moribund, they were sacrificed according to Institutional Animal Care and Use Committee protocols.

[3] = tested on: IFNα-induced (NZB×NZW)F1 lupus model; assay: IFNα-induced (NZB×NZW)F1 lupus model: proteinuria, survival, lymphopenia; assay type: in vivo, (NZB×NZW)F1 mice
Procedure: (§1) Treatment was initiated in a late-prophylactic mode (7 days after IFNα adenovirus). […] All treatment groups were administered treatment 7 days after adenovirus injection. Following adenovirus injection, mice were monitored weekly for proteinuria (PU) using Albustix test strips (VWR). Severe PU was defined by consecutive weekly measurements of PU≧300 mg/dl. When mice became moribund, they were sacrificed according to Institutional Animal Care and Use Committee protocols.

[4] = tested on: submandibular salivary gland; assay: Salivary gland histology in spontaneous murine model of lupus; assay type: in vivo, (NZB×NZW)F1 mice
Description: It is recognized within the art that Sjogren's Syndrome is a chronic disease state that affects the moisture-producing glands of the body, including the salivary glands of the mouth. As such, it was theorized that penetration of the selective Bcl-2 inhibitors into the salivary glands of patients with Sjogren's Syndrome could provide an effective treatment to decrease lymphocytes associated with Sjogren's Syndrome, without the dose-limiting thrombocytopenia associated with non-selective Bcl-2 inhibition. A histologic assessment of the penetration of selective Bcl-2 inhibitors into the salivary glands of spontaneous murine model for lupus was performed to test this theory. The spontaneous murine model of lupus, as described in Example 3, was used for the histological assessment described herein. Specifically, sublingual and submandibular salivary glands were fixed in 10% neutral-buffered formalin and paraffin embedded. Five μm sections were H&E stained and semiquantitatively scored (0-4) by an experienced pathologist for inflammatory cell infiltrates. Salivary gland infiltrate scoring categories: (1) 3 or fewer small periductular foci, (2) 3 or more medium sized foci, (3) several extensive foci, and (4) coalescing to diffuse infiltrates. The histologic assessment of the submandibular tissue sections is illustrated in FIG. 11.

[5] = tested on: peripheral blood immune cells and platelets; assay: Peripheral blood lymphocytes and platelets in (NZB×NZW)F1 mice, Cell Dyn hematology analyzer; assay type: in vivo; settings: (NZB×NZW)F1 mice, four days, orally every day
[6] = tested on: IgG anti-ds DNA; assay: Anti-ds DNA titer by ELISA in IFNα-accelerated lupus model; assay type: in vivo, (NZB×NZW)F1 mice; settings: interferon-induced model, 3-30 mg/kg
Procedure: (§2) An additional experiment was performed to determine the effects of treatment with a selective Bcl-2 inhibitor on anti-DS DNA titer in the Interferon-α accelerated lupus model. Anti-dsDNA antibody levels were measured by ELISA and assigned arbitrary activity unit concentrations per ml relative to a standard plasma pool derived from proteinuric 9-10 month old NZB/W mice. ELISA assay was performed by coating plates with poly-L-lysine followed by calf-thymus DNA. Diluted mouse plasma was incubated and developed using anti-IgG HRP conjugated antibodies and the mean OD from duplicate wells was compared to a titrated standard curve of pooled high tittered anti-dsDNA plasma. The undiluted standard plasma pool was arbitrarily assigned a value of 1000 anti-dsDNA Units/ml. A linear regression analysis was then used to calculate the relative units of a given sample multiplied by the given dilution factor. The results of this experiment are illustrated in FIG. 10.

[7] = Exposure in IFNα-induced lupus model; assay type: in vivo
Procedure: as §1

[8] = tested on: FL5.12-Bcl-2 cells; assay: Cellular efficacy in FL5.12 cells dependent on Bcl-2; assay type: cell-based, murine; settings: Mus musculus, 3% FBS
[9] = tested on: IgG anti-ds DNA; assay: Anti-ds DNA titer by ELISA in spontaneous lupus model; assay type: in vivo, (NZB×NZW)F1 mice
Procedure: as §2, with “It is believed that Compound 1 triggers apoptosis” for “An additional experiment was performed to determine the effects”, “lymphocytes that are responsible for production of antibodies, which play” for “treatment with”, “role” for “selective Bcl-2 inhibitor on anti-DS DNA titer”, “progression of systemic” for “Interferon-α accelerated”, “erythematosus, as well as Sjogren's Syndrome. […] Specifically, anti-dsDNA” for “model. Anti-dsDNA”, “factor.” for “factor. The results of this experiment are illustrated in FIG. 10.”

[10] = tested on: renal tissue; assay: Renal histology and immunohistochemistry in spontaneous lupus nephritis mice; assay type: in vivo, (NZB×NZW)F1 mice
Procedure: An experiment was performed to determine the extent to which the selective Bcl-2 inhibitors infiltrated the kidney tissue. Specifically, a histologic assessment of the penetration of selective Bcl-2 inhibitors into the renal tissue of spontaneous murine model for lupus was performed. The spontaneous murine model of lupus, as described in Example 3, was used for the histological assessment described herein. The kidneys were bisected and then fixed in 10% neutral-buffered formalin or cryopreserved (snap frozen). For H&E staining, 5-μm sections from paraffin-embedded tissues were semiquantitatively scored (0-4) by an experienced pathologist for glomerulonephritis and tubular changes (dilation and casts). For IgG immunohistochemistry, 5-μm cryosections were fixed with acetone, washed, and blocked with 10% normal goat serum. Sections were then incubated with FITC-conjugated goat anti-mouse IgG (Cappel/ICN Pharmaceuticals) or negative control HRP-goat IgG (Jackson ImmunoResearch Laboratories) and coverslipped using Vectashield with 4′,6-diamidino-2-phenylindole (Vector Laboratories). Sections were evaluated for severity of IgG deposition using a semiquantitative scoring system (from 0-4). To identify for B and T cells, immunohistochemistry for CD45R (B cells) and CD3 (T cells) was completed on paraffin sections. FIGS. 6 and 7 illustrate the results of the histological assessment, and FIG. 8 illustrates the effect of selective Bcl-2 inhibitor treatment on IgG deposition, B cells, and T cells in the kidneys.

[11] = tested on: cells dependent on Bcl-2 for survival; assay: Mechanism of cell killing (apoptosis hallmarks); assay type: cell-based
Description: As also shown in Table 1B, additional compounds show selective binding affinity for Bcl-2 over Bcl-XL and other Bcl-2 family proteins.

## CC1(C)CCC(CN2CCN(c3ccc(C(=O)NS(=O)(=O)c4ccc(NCC5CCOCC5)c([N+](=O)[O-])c4)c(Oc4cnc5[nH]ccc5c4)c3)CC2)=C(c2ccc(Cl)cc2)C1 [Compound 1, 4-(4-{[2-(4-chlorophenyl)-4,4-dimethylcyclohex-1-en-1-yl]methyl}piperazin-1-yl)-N-({3-nitro-4-[(tetrahydro-2H-pyran-4-ylmethyl)amino]phenyl}sulfonyl)-2-(1H-pyrrolo[2,3-b]pyridin-5-yloxy)benzamide]
[1]; 1 oral dose of 100 mg/kg
  Day 1 Lymphocytes: 1.38 ×10^6
[1]; 4 oral doses of 100 mg/kg
  Day 4 lymphocytes: 1.32 ×10^6
[1]; 24 h, 1 oral dose of 100 mg/kg, read-out: Day 1 % Reduction vs. Vehicle
  inhibition in vivo at 100 mg/kg: 83%
[1]; 96 h, 4 oral doses of 100 mg/kg, read-out: Day 4 % Reduction vs. Vehicle
  inhibition in vivo at 100 mg/kg: 83%
[2]
  exposure: 40 µg·h/mL
[3]; 30 mg/kg
  lymphopenia in the blood throughout treatment: > 70%
[3]; 30 mg/kg/day orally
  % Mice with PU < 300 mg/dL: 77* %
  % Survival: 82* %
[3]; 30 and 100 mg/kg
  onset of severe PU and survival: significantly delayed the onset of severe PU and prolonged survival
[4]; 30 mg/kg and 100 mg/kg
  submandibular salivary gland histology scores vs untreated: statistically significant improvement
[4]; 30 mg/kg and 100 mg/kg, scale 0-4, untreated mice 3-4
  salivary gland histology score: 1-2
[4]; 30 or 100 mg/kg
  salivary gland infiltrates: small, discrete and less frequent
[5]
  lymphocytes in peripheral blood: dose dependent decrease in lymphocytes
  platelet counts: maintaining normal platelet counts
[6]
  anti-ds DNA titer: did not significantly inhibit
[7]
  target efficacious exposure: approximately 40 μg·h/mL
[8]
  EC50: 4 nM
[9]; spontaneous model, 1, 3 and 10 mg/kg
  anti-ds DNA titer: no appreciable reduction
[9]; spontaneous model, week 40, 30 and 100 mg/kg
  anti-ds DNA titer vs vehicle control: significantly inhibited the increase in anti-ds DNA titer
[10]; 30 mg/kg
  IgG deposition in renal tissue: decrease in IgG deposition
[10]; 30 mg/kg and 100 mg/kg
  renal histology scores (glomerulonephritis, tubular changes, perivascular infiltrates): statistically significant improvement
[10]; 100 mg/kg
  B cell and T cell numbers in renal tissue: decreases in B cell and T cell numbers
[10]; 30 or 100 mg/kg
  renal tissue infiltrates: small, discrete and less frequent
[11]
  hallmarks of apoptotic cell death: rapid cytochrome c release, caspase-3 and -7 activation, and membrane phosphatidylserine (PS) externalization
[11]; ablated by pan caspase inhibitor z-VAD-fmk
  caspase dependence of cell killing: caspase-dependent
